# According to US10106552B2, “Compounds inhibiting eukaryotic elongation factor 2 kinase activity” (Longevica Pharmaceuticals, Inc., priority 2013, dated 2018):
# Molecular target: recombinant eEF2K (Homo sapiens (Human), UniProt O00418)
# Assay: eEF2K Kinase-Glo luminescent kinase assay (ATP consumption, peptide substrate)
# Format: biochemical
# Conditions: average of two to four separate experimental measurements, each the average of three replicates
# Protocol: The following compounds were synthesized using the general methods described above. In the table below, IC50 values are in μM and are the average of two to four separate experimental measurements, each consisting in turn of the average of three replicates. IC50 values were calculated using the methods as described in Example 2. MW was determined by mass spectroscopy analysis, and is expressed as M+1.
# To determine the IC50 of compounds of the invention, recombinant eEF2K was diluted in an assay buffer in the presence of calmodulin, a calcium-binding messenger protein expressed in eukaryotic cells, and incubated with peptide substrate Ac-RKKYKFNEDTERRRFL in the presence of Adenosine-5′-triphosphate (ATP) and the test compound. The peptide substrate is efficiently and specifically phosphorylated by eEF2K at a single substrate concentration of 100 μM. Using this peptide, eEF2K activity can be quantitatively determined using a Kinase-Glo® luminescent kinase assay kit (Promega) that measures ATP consumption by EF2K during phosphorylation of the substrate. ATP conversion was recorded using Perkin-Elmer Victor Luminometer. Data was plotted using GraphPad software and IC50 was calculated using 3-parameter sigmoidal curve fit.
row,SMILES,IC50
1,"CC1(C)C/C(=C\c2ccc(Cl)o2)c2nc3sc(C(N)=O)c(N)c3c(-c3ccc(Cl)o3)c2C1 [Compound 1, 3-Amino-4-(5-chloro-furan-2-yl)-8-(5-chloro-furan-2-ylmethylene)-6,6-dimethyl-5,6,7,8-tetrahydro-thieno[2,3-b]quinoline-2-carboxylic acid amide]",2.7 µM
2,"NC(=O)c1sc2nc3c(c(-c4ccc(Cl)o4)c2c1N)CC(c1ccccc1)C/C3=C\c1ccc(Cl)o1 (stereo not drawn) [Compound 3, 3-Amino-4-(5-chloro-furan-2-yl)-8-(5-chloro-furan-2-ylmethylene)-6-phenyl-5,6,7,8-tetrahydro-thieno[2,3-b]quinoline-2-carboxylic acid amide]",10000 µM
3,"NC(=O)c1sc2nc3c(c(-c4ccc(Cl)o4)c2c1N)CC(c1ccccc1)CC3 (stereo not drawn) [Compound 4, 3-Amino-4-(5-chloro-furan-2-yl)-6-phenyl-5,6,7,8-tetrahydro-thieno[2,3-b]quinoline-2-carboxylic acid amide]",10000 µM
4,"CCCC1C/C(=C\c2ccc(Cl)o2)c2nc3sc(C(N)=O)c(N)c3c(-c3ccc(Cl)o3)c2C1 (stereo not drawn) [Compound 5, 3-Amino-4-(5-chloro-furan-2-yl)-8-(5-chloro-furan-2-ylmethylene)-6-propyl-5,6,7,8-tetrahydro-thieno[2,3-b]quinoline-2-carboxylic acid amide]",6 µM
5,"CC1(C)CCc2nc3sc(C(N)=O)c(N)c3c(-c3ccco3)c2C1 [Compound 6, 3-Amino-4-furan-2-yl-6,6-dimethyl-5,6,7,8-tetrahydro-thieno[2,3-b]quinoline-2-carboxylic acid amide]",1.2 µM
6,"CC1(C)CCc2c(nc3sc(C(N)=O)c(N)c3c2-c2ccc(Cl)o2)C1 [Compound 7, 3-Amino-4-(5-chloro-furan-2-yl)-7,7-dimethyl-5,6,7,8-tetrahydro-thieno[2,3-b]quinoline-2-carboxylic acid amide]",1.6 µM
7,"CC1(C)CCCc2c1nc1sc(C(N)=O)c(N)c1c2-c1ccc(Cl)o1 [Compound 8, 3-Amino-4-(5-chloro-furan-2-yl)-8,8-dimethyl-5,6,7,8-tetrahydro-thieno[2,3-b]quinoline-2-carboxylic acid amide]",4.7 µM
8,"CC1(C)CCc2c1nc1sc(C(N)=O)c(N)c1c2-c1ccc(Cl)o1 [Compound 9, 3-Amino-4-(5-chloro-furan-2-yl)-7,7-dimethyl-6,7-dihydro-5H-1-thia-8-aza-s-indacene-2-carboxylic acid amide]",2.4 µM
9,"CC1(C)CCc2c(nc3sc(C(N)=O)c(N)c3c2-c2ccc(Cl)c(Cl)c2)C1 [Compound 11, 3-Amino-4-(3,4-dichloro-phenyl)-7,7-dimethyl-5,6,7,8-tetrahydro-thieno[2,3-b]quinoline-2-carboxylic acid amide]",23 µM
10,"CC1CC(C)(C)Cc2nc3sc(C(N)=O)c(N)c3c(-c3ccc(Cl)o3)c21 (stereo not drawn) [Compound 12, 3-Amino-4-(5-chloro-furan-2-yl)-5,7,7-trimethyl-5,6,7,8-tetrahydro-thieno[2,3-b]quinoline-2-carboxylic acid amide]",5 µM
11,"NC(=O)c1sc2nc3c(c(-c4ccc(Cl)o4)c2c1N)CCCC3c1ccccc1 (stereo not drawn) [Compound 13, 3-Amino-4-(5-chloro-furan-2-yl)-8-phenyl-5,6,7,8-tetrahydro-thieno[2,3-b]quinoline-2-carboxylic acid amide]",31 µM
12,"CC1(C)C/C(=C\c2cccc(Cl)c2F)c2nc3sc(C(N)=O)c(N)c3c(-c3cccc(Cl)c3F)c2C1 [Compound 14, 3-Amino-8-(3-chloro-2-fluoro-benzylidene)-4-(3-chloro-2-fluoro-phenyl)-6,6-dimethyl-5,6,7,8-tetrahydro-thieno[2,3-b]quinoline-2-carboxylic acid amide]",5020 µM
13,"CC1(C)CCc2c1nc1sc(C(N)=O)c(N)c1c2-c1ccco1 [Compound 15, 3-Amino-4-furan-2-yl-7,7-dimethyl-6,7-dihydro-5H-1-thia-8-aza-s-indacene-2-carboxylic acid amide]",2.5 µM
14,"CC1CC(C)(C)Cc2nc3sc(C(N)=O)c(N)c3c(-c3ccco3)c21 (stereo not drawn) [Compound 16, 3-Amino-4-furan-2-yl-5,7,7-trimethyl-5,6,7,8-tetrahydro-thieno[2,3-b]quinoline-2-carboxylic acid amide]",4.6 µM
15,"CC1(C)CCc2nc3sc(C(N)=O)c(N)c3c(-c3ccsc3)c2C1 [Compound 20, 3-Amino-6,6-dimethyl-4-thiophen-3-yl-5,6,7,8-tetrahydro-thieno[2,3-b] quinoline-2-carboxylic acid amide]",2.2 µM
16,"CC1(C)CCc2nc3sc(C(N)=O)c(N)c3c(-c3ccoc3)c2C1 [Compound 21, 3-Amino-4-furan-3-yl-6,6-dimethyl-5,6,7,8-tetrahydro-thieno[2,3-b]quinoline-2-carboxylic acid amide]",2 µM
17,"CC1(C)C/C(=C\c2ccoc2)c2nc3sc(C(N)=O)c(N)c3c(-c3ccoc3)c2C1 [Compound 22, 3-Amino-4-furan-3-yl-8-furan-3-ylmethylene-6,6-dimethyl-5,6,7,8-tetrahydro-thieno[2,3-b]quinoline-2-carboxylic acid amide]",6 µM
18,"CC1(C)CCc2c1nc1sc(C(N)=O)c(N)c1c2-c1nccs1 [Compound 23, 3-Amino-7,7-dimethyl-4-thiazol-2-yl-6,7-dihydro-5H-1-thia-8-aza-s-indacene-2-carboxylic acid amide]",2 µM
19,"CC1(C)CCc2c1nc1sc(C(N)=O)c(N)c1c2-c1ccc(Cl)s1 [Compound 24, 3-Amino-4-(5-chloro-thiophen-2-yl)-7,7-dimethyl-6,7-dihydro-5H-1-thia-8-aza-s-indacene-2-carboxylic acid amide]",1.4 µM
20,"CC1(C)CCc2c1nc1sc(C(N)=O)c(N)c1c2-c1ccc(Br)s1 [Compound 27, 3-Amino-4-(5-bromo-thiophen-2-yl)-7,7-dimethyl-6,7-dihydro-5H-1-thia-8-aza-s-indacene-2-carboxylic acid amide]",1.5 µM
21,"CC1(C)CCc2c1nc1sc(C(N)=O)c(N)c1c2-c1cscn1 [Compound 30, 3-Amino-7,7-dimethyl-4-thiazol-4-yl-6,7-dihydro-5H-1-thia-8-aza-s-indacene-2-carboxylic acid amide]",3.4 µM
22,"CC1(C)CCc2c1nc1sc(C(N)=O)c(N)c1c2-c1cocn1 [Compound 31, 3-Amino-7,7-dimethyl-4-oxazol-4-yl-6,7-dihydro-5H-1-thia-8-aza-s-indacene-2-carboxylic acid amide]",3.5 µM
23,"Cc1csc(-c2c3c(nc4sc(C(N)=O)c(N)c24)C(C)(C)CC3)n1 [Compound 32, 3-Amino-7,7-dimethyl-4-(4-methyl-thiazol-2-yl)-6,7-dihydro-5H-1-thia-8-aza-s-indacene-2-carboxylic acid amide]",3.8 µM

# These reach a lower IC50. Values come first.
row,IC50,SMILES
1,1.1 µM,"CC1(C)CCc2nc3sc(C(N)=O)c(N)c3c(-c3ccc(Cl)o3)c2C1 [Compound 2, 3-Amino-4-(5-chloro-furan-2-yl)-6,6-dimethyl-5,6,7,8-tetrahydro-thieno[2,3-b]quinoline-2-carboxylic acid amide]"
2,1.1 µM,"CC1(C)CCc2c1nc1sc(C(N)=O)c(N)c1c2-c1ccoc1 [Compound 17, 3-Amino-4-furan-3-yl-7,7-dimethyl-6,7-dihydro-5H-1-thia-8-aza-s-indacene-2-carboxylic acid amide]"
3,1.1 µM,"CC1(C)CCc2c1nc1sc(C(N)=O)c(N)c1c2C1CC1 [Compound 19, 3-Amino-4-cyclopropyl-7,7-dimethyl-6,7-dihydro-5H-1-thia-8-aza-s-indacene-2-carboxylic acid amide]"
4,1.1 µM,"CC1(C)CCc2nc3sc(C(N)=O)c(N)c3c(-c3cncs3)c2C1 [Compound 33, 3-Amino-6,6-dimethyl-4-thiazol-5-yl-5,6,7,8-tetrahydro-thieno[2,3-b]quinoline-2-carboxylic acid amide]"
5,1 µM,"CC1(C)CCc2c(nc3sc(C(N)=O)c(N)c3c2-c2ccco2)C1 [Compound 10, 3-Amino-4-furan-2-yl-7,7-dimethyl-5,6,7,8-tetrahydro-thieno[2,3-b]quinoline-2-carboxylic acid amide]"
6,1 µM,"CCC(C)c1c2c(nc3sc(C(N)=O)c(N)c13)C(C)(C)CC2 (stereo not drawn) [Compound 26, 3-Amino-4-sec-butyl-7,7-dimethyl-6,7-dihydro-5H-1-thia-8-aza-s-indacene-2-carboxylic acid amide]"
7,0.9 µM,"CC1(C)CCc2c1nc1sc(C(N)=O)c(N)c1c2-c1ccsc1 [Compound 18, 3-Amino-7,7-dimethyl-4-thiophen-3-yl-6,7-dihydro-5H-1-thia-8-aza-s-indacene-2-carboxylic acid amide]"
8,0.8 µM,"CC1(C)CCc2c1nc1sc(C(N)=O)c(N)c1c2-c1cc(Br)cs1 [Compound 25, 3-Amino-4-(4-bromo-thiophen-2-yl)-7,7-dimethyl-6,7-dihydro-5H-1-thia-8-aza-s-indacene-2-carboxylic acid amide]"
9,0.7 µM,"Cn1cc(-c2c3c(nc4sc(C(N)=O)c(N)c24)C(C)(C)CC3)cn1 [Compound 29, 3-Amino-7,7-dimethyl-4-(1-methyl-1H-pyrazol-4-yl)-6,7-dihydro-5H-1-thia-8-aza-s-indacene-2-carboxylic acid amide]"
10,0.4 µM,"CC1(C)CCc2c1nc1sc(C(N)=O)c(N)c1c2-c1cncs1 [Compound 28, 3-Amino-7,7-dimethyl-4-thiazol-5-yl-6,7-dihydro-5H-1-thia-8-aza-s-indacene-2-carboxylic acid amide]"
